Test results as given in US20050215601A1, “Therapeutic agent for rheumatic disease comprising benzamide derivative as active ingredient” (SANTEN PHARMACEUTICAL CO., LTD., priority 2002, published 2005).

Tested on: type II collagen-induced arthritis of rats
Assay: Effects on type II collagen-induced arthritis (hind paw volume)
Assay type: in vivo, rat
Conditions: rats (female) sensitized with bovine type II collagen; test compound 6 mg/kg orally immediately before, 7 and 14 days after primary sensitization; average of eight per group; FIG. 1
Method: 1) Effects on Type II Collagen-Induced Arthritis
Model of type II collagen-induced arthritis has been widely used as an animal model for evaluating effects of drugs on rheumatic diseases (Nature, 283, 666-668 (1980)). Anti-arthritic effects of the present compounds were evaluated and studied according to this model.
A solution of bovine joint cartilage-derived type II collagen in 0.05 N acetic acid (2 mg/ml) was mixed with Freund's incomplete adjuvant of the same volume to prepare an emulsion (final concentration: 1 mg/ml).
As a primary sensitization, this emulsion was injected intradermally into five sites on the back of each rat (female, seven weeks old, weight: approximately 130 to 160 g) at a dose of 100 μl (total 500 μl: corresponding to 500 μg of type II collagen per rat). Seven days after the primary sensitization, 100 μl of this emulsion was injected intradermally into a root of the rat tail again (secondary sensitization). 0.5 ml/kg of a test compound solution (the test compound was dissolved in a 5% carboxymethylcellulose solution as a vehicle) was orally administered immediately before the primary sensitization, 7 days after the primary sensitization and 14 days after the primary sensitization. The dosage of test compound was adjusted to 6 mg/kg. […]

Nc1ccccc1NC(=O)c1ccc(CNC(=O)COc2cccnc2)cc1 [Test compound 2, N-(2-aminophenyl)-4-[N-(pyridin-3 yl)oxyacetylaminomethyl]benzamide]
increase in hind paw volume: any increase in hind paw volume could not be found
